From PMC7809625 (Cell Reports, 2021) come the findings set out here.

Experiment [1] has as its target T1, VGLUT1 (Rattus norvegicus, UniProt Q62634).
T1 sequence (Q62634 1-560): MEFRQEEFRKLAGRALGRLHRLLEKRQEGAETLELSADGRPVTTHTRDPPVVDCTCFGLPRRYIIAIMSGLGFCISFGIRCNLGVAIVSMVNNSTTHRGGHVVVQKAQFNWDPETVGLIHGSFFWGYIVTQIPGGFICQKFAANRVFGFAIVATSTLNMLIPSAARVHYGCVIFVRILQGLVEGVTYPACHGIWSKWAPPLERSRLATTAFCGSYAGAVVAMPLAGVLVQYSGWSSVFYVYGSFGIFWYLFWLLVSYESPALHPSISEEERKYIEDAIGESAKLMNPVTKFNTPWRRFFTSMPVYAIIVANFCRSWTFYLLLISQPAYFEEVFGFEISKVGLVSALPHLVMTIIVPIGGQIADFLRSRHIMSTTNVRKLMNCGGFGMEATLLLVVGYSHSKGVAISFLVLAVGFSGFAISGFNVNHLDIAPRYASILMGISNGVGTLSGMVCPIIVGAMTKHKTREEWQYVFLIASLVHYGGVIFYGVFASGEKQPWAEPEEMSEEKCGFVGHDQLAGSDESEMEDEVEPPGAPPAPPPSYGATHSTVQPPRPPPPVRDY
As to the kind of experiment: inhibition of Pi uptake in COS7-VGLUT1 cells at […]. The experiment is classed as cell-based.

Experiment [2] concerns the target T1, VGLUT1. Description: inhibition of Na+-dependent Pi uptake in COS7-VGLUT1 cells. Format: cell-based.

The term Ki denotes a measure of affinity in units of concentration, obtained from inhibition or displacement. The low end stands for a stronger hold on the target, the high end for a looser hold on the target.

SMILES strings stand for the structures.

As to `O=C1OC2(c3cc(I)c(O)c(I)c3Oc3c2cc(I)c(O)c3I)c2c(Cl)c(Cl)c(Cl)c(Cl)c21` [RB, Rose bengal], in experiment [1], the “inhibition of Pi uptake in COS7-VGLUT1 cells at 10 uM” value was “The absence of additive effect of NB9 and RB emphasizes the specificity of both inhibitors toward VGLUT1”.

`N[C@@H](CCC(=O)O)C(=O)O` [glutamate] registered a Ki in experiment [2] of 1370 µM.
